Test results taken from patent publication US20120172408A1, “ACTIVE INGREDIENT COMPRISING INDOCYANINE GREEN AND/OR INFRACYANINE GREEN” (A.R.C. LASER GMBH, priority 2011, published 2012).

System: microscopic organisms
Test: Antimicrobial effect of ICG under irradiation with light (photodynamic), infections on gingiva and teeth
Conditions: more particularly laser light, wavelength 780 to 830 nm

In the case of CC1(C)C(/C=C/C=C/C=C/C=C2\N(CCCCS(=O)(=O)O)c3ccc4ccccc4c3C2(C)C)=[N+](CCCCS(=O)(=O)[O-])c2ccc3ccccc3c21 [ICG, Indocyanine green], the “effect against microscopic organisms, more particularly an antimicrobial effect” value is reported as “outstanding effect”.
